Source: patent US20060052297A1, “Method of up-regulating tumor antigen expression using thymalfasin” (priority 2002, published 2006)

Columns and labels:
[1] = Safety of thymalfasin in humans; format: in vivo, human
Procedure: (§1) TLP expression-enhancing amounts of thymalfasin peptide can be determined by routine dose-titration experiments. Up-regulation of TLP can be achieved in vivo by administration of between 2 μg/kg and 6 mg/kg body weight of thymalfasin, preferably between 20 μg/kg and 200 μg/kg.

[2] = Safety of thymalfasin in rats; format: in vivo, rat
Procedure: as §1

[3] = subcutaneously injected; Rost, et al., 1998; cited from earlier work

Substance: Ac-SDAAVDTSSEITTKDLKEKKEVVEEAEN-OH [thymalfasin]
- dose found to be safe [1]: ≤ 16 mg/dose/day
- dose found to be safe [2]: ≤ 6 mg/kg/day
- plasma half-life [3]: about 2 hours
